{
  "source": "patent US11517581B2",
  "about": "“Zika virus protease inhibitors and methods of use thereof” (priority 2017, dated 2022)",
  "key": {"ZIKV": {"test_system": "ZIKV", "assay": "Dexamethasone-immunosuppressed mouse model of disseminated ZIKV infection", "format": "in vivo, BALB/c mice", "method": "Approval was obtained from the Committee on the Use of Live Animals in Teaching and Research of The University of Hong Kong. […] Phosphate-buffered saline (PBS) was used to dilute the virus stocks to the desired concentration, and inocula were back-titrated to verify the dose given. On the day of virus inoculation, a dose of the virus equivalent to 6×10^6 TCID50 (3.24×10^6 plaque forming units) in […] of PBS was inoculated via the intraperitoneal route into mice under ketamine (100 mg/kg) and xylazine (10 mg/kg) anesthesia. Mice in the negative-control groups were injected with the same volume of PBS. Mice were monitored three times each day for clinical signs of disease and a numerical score was assigned at each observation as previously described (Chan et al., 2016c). Three mice per group were sacrificed at 5 dpi for virological, histological, and immunohistochemistry analyses. The remaining mice were sacrificed at 14 dpi or euthanized when there was ≥20% weight loss or ≥10% weight loss with ≥1 clinical sign. Samples of major organs were collected at necropsy for virological, histological, and immunohistochemical analyzes as we previously described (Chan et al., 2016c. Chan et al., 2017b). Blood samples were also collected for RNA extraction and qRT-PCR analysis."}, "ZIKV NS2B-NS3 protease": {"molecular_target": "ZIKV NS2B-NS3 protease (Zika virus, UniProt A0A024B7W1, DEL1468-1502)", "sequence (A0A024B7W1 1502-1672, added parts left off, stated change not applied)": "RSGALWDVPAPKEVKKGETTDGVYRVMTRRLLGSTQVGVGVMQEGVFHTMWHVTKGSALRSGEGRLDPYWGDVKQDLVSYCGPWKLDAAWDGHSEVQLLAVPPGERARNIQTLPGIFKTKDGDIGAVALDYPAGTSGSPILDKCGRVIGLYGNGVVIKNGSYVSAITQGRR", "assay": "Enzyme kinetic experiments, mode of protease inhibition", "format": "biochemical", "details": "5 nM protease, substrate 0-100 μM, drug 0-1000 μg/ml; global R^2=0.99", "method": "Hydrogen bonds and hydrophobic contact areas are represented by dashed lines and the two brackets, respectively. The main interacting residues are labeled. The dashed lines represent bonds between hydrogen and acceptor atoms that are involved. […] In the assay, concentration of ZIKV NS2B-NS3 protease was fixed as 5 nM, while different concentrations of substrate (100, 50, 25, 12.5, 6.25, 3.125 and 0 μM) were added to plot the enzyme kinetic curves. Four concentrations of the drug (1000, 250, 62.5 and 0 μg/ml) were tested individually against the different concentrations of substrate. The experiments were repeated twice for confirmation. The data were analyzed for mode of inhibition by GraphPad Prism 6 in the module of enzyme kinetics. R^2>0.95 was considered as statistically significant.\nTo explore the mode of protease inhibition, enzyme kinetic experiments were performed in the presence or absence of the drug."}, "[1]": {"test_system": "ZIKV (Puerto Rico strain PRVABC59) in BALB/c mice", "assay": "In vivo treatment of dexamethasone-immunosuppressed mice with disseminated ZIKV infection", "set-up": "species or system mouse (BALB/c); Zika virus", "details": "100 mg/kg q12 h sc", "protocol": "Phosphate-buffered saline (PBS) was used to dilute the virus stocks to the desired concentration, and inocula were back-titrated to verify the dose given. On the day of virus inoculation, a dose of the virus equivalent to 6×10^6 TCID50 (3.24×10^6 plaque forming units) in 2000 of PBS was inoculated via the intraperitoneal route into mice under ketamine (100 mg/kg) and xylazine (10 mg/kg) anesthesia. Mice in the negative-control groups were injected with the same volume of PBS. Mice were monitored three times each day for clinical signs of disease and a numerical score was assigned at each observation as previously described (Chan et al., 2016c). Three mice per group were sacrificed at 5 dpi for virological, histological, and immunohistochemistry analyses. The remaining mice were sacrificed at 14 dpi or euthanized when there was ≥20% weight loss or ≥10% weight loss with ≥1 clinical sign. Samples of major organs were collected at necropsy for virological, histological, and immunohistochemical analyzes as we previously described (Chan et al., 2016c. Chan et al., 2017b). Blood samples were also collected for RNA extraction and qRT-PCR analysis.\nFor immunohistochemical analysis, each organ was entirely embedded in one paraffin block, and one full-face paraffin section at the maximum diameter of each organ was examined per block."}},
  "note": "Entries after “also recorded” stand apart in the source; their conditions may differ.",
  "data": [
    {"smiles": "CO[C@@H]1[C@@H](OC(N)=O)[C@@H](O)[C@H](Oc2ccc3c(O)c(NC(=O)c4ccc(O)c(CC=C(C)C)c4)c(=O)oc3c2C)OC1(C)C", "note": "[Novobiocin]", "values": [
      {"measurement": "Survival", "setting": "ZIKV; 100 mg/kg q12 h sc 1-13 dpi, vs 0% untreated control mice, P<0.05", "value": 100, "unit": "%"},
      {"measurement": "ZIKV-NS1 antigen expression in organ tissues (immunohistochemical staining)", "setting": "ZIKV; 5 dpi", "value": "minimal; also recorded: rarely detected"},
      {"measurement": "Mean viral loads in the blood and the major organ tissues", "setting": "ZIKV; 5 dpi and 14 dpi, incl. testis and kidney", "value": "significantly reduced"},
      {"measurement": "Weight loss after dexamethasone withdrawal", "setting": "ZIKV; ZIKV-inoculated, 100 mg/kg q12 h sc", "value": "≤ 8", "unit": "%"},
      {"measurement": "Clinical symptoms after dexamethasone withdrawal", "setting": "ZIKV; ZIKV-inoculated, 100 mg/kg q12 h sc, recovered at 13-14 dpi", "value": "minimal clinical symptoms"},
      {"measurement": "Inflammatory infiltrates in organ tissues (H&E)", "setting": "ZIKV; after dexamethasone withdrawal, 12 or 14 dpi", "value": "little inflammatory infiltrate; also recorded: no or mild inflammatory infiltrate, and preserved tissue architecture; also recorded: minimal inflammatory infiltrates"},
      {"measurement": "Reduction of mean viral loads in blood and most major organ tissues vs untreated control mice", "setting": "ZIKV; at both 5 dpi and 14 dpi, qRT-PCR normalized by β-actin", "value": "≥ 2", "unit": "log"},
      {"measurement": "Mode of protease inhibition", "setting": "ZIKV NS2B-NS3 protease", "value": "competitive"},
      {"measurement": "ZIKV NS1 antigen expression in organ tissues (brain, testis, kidney)", "setting": "[1]; 5 dpi", "value": "minimal ZIKV NS1 antigen expression"},
      {"measurement": "Inflammatory infiltrate in brain, testis and kidney", "setting": "[1]; ZIKV-inoculated and mock-infected mice with novobiocin", "value": "no or mild inflammatory infiltrate"}
    ]}
  ]
}
